Data reported in PubChem BioAssay (NCI).
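Values below derive from 48-hour exposures of cells grown in 96-well plates, with endpoints linearly interpolated between the two concentrations bracketing the appropriate inhibition level. TGI marks complete inhibition of growth.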

Assays:
Test in all cases: growth of human tumour cells (NCI), 48 h
[1] = tested on: A549 NSCLC
[2] = tested on: SW-620 colon
[3] = tested on: MCF7 breast
[4] = tested on: SNB-75 CNS
[5] = tested on: KM12 colon
[6] = tested on: CAKI-1 renal
[7] = tested on: SK-MEL-5 melanoma
[8] = tested on: NCI-H522 lung
[9] = tested on: IGROV1 ovarian
[10] = tested on: HCT-116 colon
[11] = tested on: OVCAR-3 ovarian
[12] = tested on: RXF 393 renal
[13] = tested on: K-562 leukemia
[14] = tested on: SK-OV-3 ovarian
[15] = tested on: LOX IMVI melanoma
[16] = tested on: MDA-N
[17] = tested on: MALME-3M melanoma
[18] = tested on: MOLT-4 leukemia
[19] = tested on: OVCAR-4 ovarian
[20] = tested on: M14 melanoma
[21] = tested on: SF-268 CNS
[22] = tested on: MDA-MB-231 breast
[23] = tested on: HL-60(TB) leukemia
[24] = tested on: CCRF-CEM leukemia
[25] = tested on: DU-145 prostate
[26] = tested on: T-47D breast
[27] = tested on: HOP-92 NSCLC
[28] = tested on: COLO 205 colon
[29] = tested on: NCI-H23 lung
[30] = tested on: HCT-15 colon
[31] = tested on: SN12C renal
[32] = tested on: TK-10 renal
[33] = tested on: NCI/ADR-RES ovarian
[34] = tested on: NCI-H460 lung
[35] = tested on: SNB-19 CNS
[36] = tested on: HCC-2998 colon
[37] = tested on: HOP-62 NSCLC
[38] = tested on: RPMI-8226 leukemia
[39] = tested on: SF-295 CNS
[40] = tested on: EKVX NSCLC
[41] = tested on: HT29 colon
[42] = tested on: BT-549 breast
[43] = tested on: NCI-H226 lung
[44] = tested on: SK-MEL-28 melanoma
[45] = tested on: SR leukemia
[46] = tested on: PC-3 prostate
[47] = tested on: UACC-62 melanoma
[48] = tested on: SF-539 CNS
[49] = tested on: A498 renal
[50] = tested on: ACHN renal
[51] = tested on: U251 CNS
[52] = tested on: OVCAR-8 ovarian
[53] = tested on: SK-MEL-2 melanoma
[54] = tested on: OVCAR-5 ovarian
[55] = tested on: 786-0 renal
[56] = tested on: HS 578T breast
[57] = tested on: UACC-257 melanoma
[58] = tested on: MDA-MB-435
[59] = tested on: UO-31 renal

Question: Which results are given for CCN(CC)CCn1ncc2c3c(=O)c4cccnc4n(CCN(CC)CC)c3ccc21?
Answer: TGI [1]: > 10 µM; TGI [2]: > 10 µM; TGI [3]: > 10 µM; TGI [4]: > 10 µM; TGI [5]: > 10 µM; TGI [6]: > 10 µM; TGI [7]: > 10 µM; TGI [8]: > 10 µM; TGI [9]: > 10 µM; TGI [10]: > 10 µM; TGI [11]: > 10 µM; TGI [12]: > 10 µM; TGI [13]: > 10 µM; TGI [14]: > 10 µM; TGI [15]: > 10 µM; TGI [16]: > 10 µM; TGI [17]: > 10 µM; TGI [18]: > 10 µM; TGI [19]: > 10 µM; TGI [20]: > 10 µM; TGI [21]: > 10 µM; TGI [22]: > 10 µM; TGI [23]: > 10 µM; TGI [24]: > 10 µM; TGI [25]: > 10 µM; TGI [26]: > 10 µM; TGI [27]: > 10 µM; TGI [28]: 6.67 µM; TGI [29]: > 10 µM; TGI [30]: > 10 µM; TGI [31]: > 10 µM; TGI [32]: > 10 µM; TGI [33]: > 10 µM; TGI [34]: > 10 µM; TGI [35]: > 10 µM; TGI [36]: > 10 µM; TGI [37]: > 10 µM; TGI [38]: > 10 µM; TGI [39]: > 10 µM; TGI [40]: > 10 µM; TGI [41]: > 10 µM; TGI [42]: > 10 µM; TGI [43]: > 10 µM; TGI [44]: > 10 µM; TGI [45]: > 10 µM; TGI [46]: > 10 µM; TGI [47]: > 10 µM; TGI [48]: > 10 µM; TGI [49]: > 10 µM; TGI [50]: > 10 µM; TGI [51]: > 10 µM; TGI [52]: > 10 µM; TGI [53]: > 10 µM; TGI [54]: > 10 µM; TGI [55]: > 10 µM; TGI [56]: > 10 µM; TGI [57]: > 10 µM; TGI [58]: > 10 µM

Question: Which TGI [1] does the source give for NCCCCCCn1c(-c2ccc(Br)cc2)csc1=Nc1ccccc1 here?
Answer: 25 µM

Question: And the TGI [2]?
Answer: 17.6 µM

Question: What about the TGI [3] of the same compound?
Answer: 17.4 µM

Question: And the TGI [4]?
Answer: 24.2 µM

Question: What about the TGI [5] of the same compound?
Answer: 19.7 µM

Question: And the TGI [6]?
Answer: 28.3 µM

Question: And the TGI [7]?
Answer: 21.7 µM

Question: What about the TGI [8] of the same compound?
Answer: 24 µM

Question: What about the TGI [10] of the same compound?
Answer: 15.1 µM

Question: And the TGI [11]?
Answer: 23.7 µM

Question: What about the TGI [12] of the same compound?
Answer: 26.2 µM

Question: And the TGI [13]?
Answer: 4.84 µM

Question: What about the TGI [14] of the same compound?
Answer: 31.1 µM

Question: And the TGI [15]?
Answer: 13.1 µM

Question: And the TGI [16]?
Answer: 19.7 µM

Question: What about the TGI [17] of the same compound?
Answer: 25.6 µM

Question: And the TGI [18]?
Answer: 14.8 µM

Question: And the TGI [19]?
Answer: 25.9 µM

Question: What about the TGI [20] of the same compound?
Answer: 3.17 µM

Question: And the TGI [21]?
Answer: 31.3 µM

Question: And the TGI [22]?
Answer: 30.3 µM

Question: And the TGI [24]?
Answer: 21.6 µM

Question: What about the TGI [25] of the same compound?
Answer: 26.3 µM

Question: And the TGI [26]?
Answer: 18.3 µM

Question: And the TGI [59]?
Answer: 22.1 µM

Question: And the TGI [27]?
Answer: 32.4 µM

Question: What about the TGI [28] of the same compound?
Answer: 3.18 µM

Question: And the TGI [29]?
Answer: 29.8 µM

Question: And the TGI [30]?
Answer: 22.1 µM

Question: And the TGI [31]?
Answer: 26.5 µM

Question: And the TGI [32]?
Answer: 26.7 µM

Question: What about the TGI [33] of the same compound?
Answer: 28.8 µM

Question: What about the TGI [34] of the same compound?
Answer: 27.1 µM

Question: And the TGI [35]?
Answer: 29 µM

Question: And the TGI [36]?
Answer: 12.8 µM

Question: And the TGI [37]?
Answer: 32.4 µM

Question: What about the TGI [38] of the same compound?
Answer: 16.2 µM

Question: And the TGI [39]?
Answer: 29.5 µM

Question: What about the TGI [40] of the same compound?
Answer: 26.7 µM

Question: What about the TGI [41] of the same compound?
Answer: 19.9 µM

Question: What about the TGI [42] of the same compound?
Answer: 27.4 µM

Question: What about the TGI [43] of the same compound?
Answer: 39.5 µM

Question: And the TGI [44]?
Answer: 27.2 µM

Question: What about the TGI [45] of the same compound?
Answer: 11.3 µM

Question: What about the TGI [46] of the same compound?
Answer: 18.3 µM

Question: And the TGI [47]?
Answer: 32.1 µM

Question: And the TGI [48]?
Answer: 30.6 µM

Question: What about the TGI [49] of the same compound?
Answer: 33.6 µM

Question: And the TGI [50]?
Answer: 27.7 µM

Question: And the TGI [51]?
Answer: 20.9 µM

Question: What about the TGI [52] of the same compound?
Answer: 26.2 µM

Question: And the TGI [53]?
Answer: 33.4 µM

Question: And the TGI [54]?
Answer: 24.6 µM

Question: What about the TGI [55] of the same compound?
Answer: 21.9 µM

Question: What about the TGI [56] of the same compound?
Answer: 35.6 µM

Question: What about the TGI [57] of the same compound?
Answer: 29.6 µM

Question: And the TGI [58]?
Answer: 22.6 µM
